Measured values reported in ChEMBL document CHEMBL1201862, “PubChem BioAssay data set” (2004).
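Compound exposure: 48 hours, 5 concentrations, 96-well plates. Abbreviation: GI50, concentration required for 50% inhibition of growth.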 Activity calls are given as the source filed them. No stated cut-off is given here; in the data, active = GI50 up to about 1.1 µM and inactive = higher.

Tests used:
Experiment in all cases: growth of human tumour cells (NCI), 48 h
[1] = test system: SK-OV-3
[2] = test system: UACC-62
[3] = test system: ACHN
[4] = test system: NCI-H23
[5] = test system: SK-MEL-28
[6] = test system: RXF 393
[7] = test system: HT-29
[8] = test system: DU-145
[9] = test system: OVCAR-8
[10] = test system: NCI-H226
[11] = test system: Malme-3M
[12] = test system: SW-620
[13] = test system: TK-10
[14] = test system: U-251
[15] = test system: HOP-92
[16] = test system: SF-539
[17] = test system: SF-295
[18] = test system: KM12
[19] = test system: MDA-N
[20] = test system: K562

SMILES	GI50 [1]	GI50 [2]	GI50 [3]	GI50 [4]	GI50 [5]	GI50 [6]	GI50 [7]	GI50 [8]	GI50 [9]	GI50 [10]	GI50 [11]	GI50 [12]	GI50 [13]	GI50 [14]	GI50 [15]	GI50 [16]	GI50 [17]	GI50 [18]	GI50 [19]	GI50 [20]
O=C(O)Cc1nc[nH]c1C(=O)O	> 100 µM (inactive)	> 100 µM (inactive)	> 100 µM (inactive)	> 100 µM (inactive)	> 100 µM (inactive)	> 100 µM (inactive)	> 100 µM (inactive)	> 100 µM (inactive)	> 100 µM (inactive)	> 100 µM (inactive)	> 100 µM (inactive)	> 100 µM (inactive)	> 100 µM (inactive)	> 100 µM (inactive)	> 100 µM (inactive)	> 100 µM (inactive)	> 100 µM (inactive)	> 100 µM (inactive)	> 100 µM (inactive)	> 100 µM (inactive)
O=C(Nc1sccc1S(=O)(=O)c1ccc(Cl)cc1)c1ccccc1	> 100 µM (inactive)	> 100 µM (inactive)	> 100 µM (inactive)	> 100 µM (inactive)	> 100 µM (inactive)	> 100 µM (inactive)	> 100 µM (inactive)	> 100 µM (inactive)	> 100 µM (inactive)	> 100 µM (inactive)	> 100 µM (inactive)	> 100 µM (inactive)	40.1 µM (inactive)	> 100 µM (inactive)	> 100 µM (inactive)	60.1 µM (inactive)	> 100 µM (inactive)	> 100 µM (inactive)	> 100 µM (inactive)	> 100 µM (inactive)
CCOC(=O)c1c(SCCN(CC)CC)n(-c2ccccc2)c(=S)n(-c2ccccc2)c1=O	19.3 µM (inactive)	4.61 µM (inactive)	1.73 µM (inactive)	15.9 µM (inactive)	2.62 µM (inactive)	1.72 µM (inactive)	4.47 µM (inactive)	1.68 µM (inactive)	2.64 µM (inactive)	21.5 µM (inactive)	1.42 µM (inactive)	2.74 µM (inactive)	1.81 µM (inactive)	15.6 µM (inactive)	1.92 µM (inactive)	4.48 µM (inactive)	34.2 µM (inactive)	14.3 µM (inactive)	2.7 µM (inactive)	1.72 µM (inactive)
Nc1ncnn2c(C3OC(CO)C(O)C3O)ccc12 (stereo not given)	0.226 µM (active)	0.136 µM (active)	0.17 µM (active)	0.137 µM (active)	0.164 µM (active)	0.226 µM (active)	0.148 µM (active)	0.23 µM (active)	0.0991 µM (active)	0.235 µM (active)	0.0698 µM (active)	0.123 µM (active)	0.214 µM (active)	0.125 µM (active)	0.0173 µM (active)	0.106 µM (active)	0.323 µM (active)	0.107 µM (active)	0.163 µM (active)	0.163 µM (active)
CCOC1C=CC(=O)C(CO)O1 (stereo not given)	18.8 µM (inactive)	12.4 µM (inactive)	10.8 µM (inactive)	12.6 µM (inactive)	16.9 µM (inactive)	7.55 µM (inactive)	8.26 µM (inactive)	15.8 µM (inactive)	11.6 µM (inactive)	24 µM (inactive)	12.2 µM (inactive)	9.23 µM (inactive)	8.43 µM (inactive)	12.7 µM (inactive)	2.57 µM (inactive)	9.02 µM (inactive)	17.9 µM (inactive)	16.4 µM (inactive)	15.3 µM (inactive)	6.67 µM (inactive)
N#Cc1c(N2CCCC2)ncn(-c2ccccc2)c1=O	> 100 µM (inactive)	> 100 µM (inactive)	> 100 µM (inactive)	> 100 µM (inactive)	> 100 µM (inactive)	> 100 µM (inactive)	> 100 µM (inactive)	> 100 µM (inactive)	> 100 µM (inactive)	> 100 µM (inactive)	> 100 µM (inactive)	> 100 µM (inactive)	> 100 µM (inactive)	> 100 µM (inactive)	> 100 µM (inactive)	> 100 µM (inactive)	> 100 µM (inactive)	> 100 µM (inactive)	> 100 µM (inactive)	> 100 µM (inactive)
Cc1cccc2c1NC(=S)[C@@H]1CCCN1C2=O	> 100 µM (inactive)	> 100 µM (inactive)	> 100 µM (inactive)	> 100 µM (inactive)	> 100 µM (inactive)	> 100 µM (inactive)	> 100 µM (inactive)	> 100 µM (inactive)	> 100 µM (inactive)	> 100 µM (inactive)	> 100 µM (inactive)	> 100 µM (inactive)	> 100 µM (inactive)	> 100 µM (inactive)	> 100 µM (inactive)	> 100 µM (inactive)	> 100 µM (inactive)	> 100 µM (inactive)	> 100 µM (inactive)	> 100 µM (inactive)
COc1cc(OC)c2c(=O)c(O)c(-c3ccc(OC)c(OC)c3)oc2c1	13.6 µM (inactive)	3.43 µM (inactive)	4.36 µM (inactive)	11.1 µM (inactive)	> 25.2 µM (inactive)	8.99 µM (inactive)	28.2 µM (inactive)	8.28 µM (inactive)	3.83 µM (inactive)	9.4 µM (inactive)	> 28.1 µM (inactive)	7.8 µM (inactive)	11.2 µM (inactive)	4.94 µM (inactive)	2.99 µM (inactive)	16.1 µM (inactive)	5.37 µM (inactive)	7.29 µM (inactive)	47.8 µM (inactive)	5.25 µM (inactive)
COc1cc2oc(-c3ccc(O)cc3O)c(CC=C(C)C)c(=O)c2c(O)c1/C=C/C(C)C [ARTOCARPIN]	7.21 µM (inactive)	3.83 µM (inactive)	2.8 µM (inactive)	3.24 µM (inactive)	5.85 µM (inactive)	2.12 µM (inactive)	2.51 µM (inactive)	4.26 µM (inactive)	1.75 µM (inactive)	3.58 µM (inactive)	6.4 µM (inactive)	2.33 µM (inactive)	4.85 µM (inactive)	2.56 µM (inactive)	3.08 µM (inactive)	4.91 µM (inactive)	3.48 µM (inactive)	3.1 µM (inactive)	2.79 µM (inactive)	2.12 µM (inactive)
